Data on one molecule can be found in ChEMBL document CHEMBL1781978, “A highly conjugated dihydroxylated C28 steroid from a myxobacterium” (J Nat Prod, 2011).

The experiment relates to SW480. The experiment in a line: Cytotoxicity against human SW480 cells by MTT assay. The class given is functional, cell-based.

Take `CC(C)[C@@H](C)/C=C/[C@@H](C)[C@H]1CCC2=C3C=CC4=CC(=O)CC[C@]4(C)[C@@]3(O)[C@H](O)C[C@@]21C`: the IC50 (commonly the concentration at which inhibition is half-maximal) came out at 10 µM.
